Experimental data published in PubChem BioAssay (NCI).
“And” between values parts separate entries of the source, which are not always exact repeats. Equal values may be shown once.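 Assay format: 96-well plates, 48-hour exposure. GI50 is the concentration that inhibits growth by half. TGI denotes the concentration required for complete inhibition of growth.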 Where a SMILES comes first, the peptide text is derived from it. [ ]: non-standard residue; d: D form. The star is where a group is joined. Phe(4-NO2) = N[CH](Cc1ccc([N+](=O)[O-])cc1)C(=O)O; Boc = CC(C)(C)OC(=O)*; OtBu = CC(C)(C)O*

Assays:
Assay in all cases: inhibition of tumour cell growth, NCI panel, 48 h
MDA-N = test system: MDA-N
SW-620 colon = test system: SW-620 colon
OVCAR-3 ovarian = test system: OVCAR-3 ovarian
SNB-75 CNS = test system: SNB-75 CNS
SK-MEL-28 melanoma = test system: SK-MEL-28 melanoma
KM12 colon = test system: KM12 colon
K-562 leukemia = test system: K-562 leukemia
RPMI-8226 leukemia = test system: RPMI-8226 leukemia
NCI-H23 lung = test system: NCI-H23 lung
HOP-92 NSCLC = test system: HOP-92 NSCLC

CN1C/C(=C\c2ccccc2[N+](=O)[O-])C(=O)/C(=C/c2ccccc2[N+](=O)[O-])C1
GI50 (MDA-N): 0.783 µM and 0.298 µM | TGI (MDA-N): 2.91 µM and 1.16 µM | GI50 (SW-620 colon): 0.292 µM | TGI (SW-620 colon): 0.886 µM and 0.603 µM | GI50 (OVCAR-3 ovarian): 0.503 µM and 0.179 µM | TGI (OVCAR-3 ovarian): 1.64 µM and 0.717 µM | TGI (SNB-75 CNS): 6.77 µM and 7.57 µM | GI50 (SK-MEL-28 melanoma): 0.906 µM and 1.83 µM | TGI (SK-MEL-28 melanoma): 3.15 µM and 4.18 µM | TGI (KM12 colon): 4.65 µM and 2.63 µM | GI50 (K-562 leukemia): 0.25 µM and 0.089 µM | GI50 (RPMI-8226 leukemia): 0.592 µM and 0.116 µM | GI50 (NCI-H23 lung): 0.868 µM | TGI (NCI-H23 lung): 3.26 µM and > 20.7 µM | TGI (HOP-92 NSCLC): 2.75 µM and 2.61 µM

C=CCOn1c(C=C)nc2c(C)cccc21
TGI (MDA-N): 11.4 µM | TGI (SW-620 colon): 11.2 µM | TGI (OVCAR-3 ovarian): 7.51 µM | TGI (SNB-75 CNS): 14.5 µM | TGI (SK-MEL-28 melanoma): 25.7 µM | TGI (KM12 colon): 13 µM | TGI (K-562 leukemia): 20.6 µM | TGI (RPMI-8226 leukemia): 17.1 µM | TGI (NCI-H23 lung): 24.1 µM | TGI (HOP-92 NSCLC): 34.4 µM

COC(=O)C(Cc1ccccc1)NC(=O)CCCNC(=O)OCc1ccccc1 (stereo not given)
TGI (MDA-N): > 100 µM | TGI (SW-620 colon): > 100 µM | TGI (OVCAR-3 ovarian): > 100 µM | TGI (SNB-75 CNS): > 100 µM | TGI (SK-MEL-28 melanoma): > 100 µM | TGI (KM12 colon): > 100 µM | TGI (K-562 leukemia): > 100 µM | TGI (RPMI-8226 leukemia): > 100 µM | TGI (NCI-H23 lung): > 100 µM | TGI (HOP-92 NSCLC): > 100 µM

CNC(=O)OCC1=C(COC(=O)NC)CN(c2ccccc2)C1
TGI (MDA-N): > 100 µM | TGI (SW-620 colon): > 100 µM | TGI (OVCAR-3 ovarian): > 100 µM | TGI (SNB-75 CNS): > 100 µM | TGI (SK-MEL-28 melanoma): > 100 µM | TGI (KM12 colon): > 100 µM | TGI (K-562 leukemia): > 100 µM | TGI (RPMI-8226 leukemia): > 100 µM | TGI (NCI-H23 lung): > 100 µM | TGI (HOP-92 NSCLC): > 100 µM

CN(Cc1nc2c(N)nc(N)nc2nc1N)c1ccc(C(=O)NC(CCC(=O)O)C(=O)O)cc1 (stereo not given)
TGI (MDA-N): > 100 µM | TGI (SW-620 colon): > 100 µM | TGI (OVCAR-3 ovarian): > 100 µM | TGI (SNB-75 CNS): > 100 µM | TGI (SK-MEL-28 melanoma): > 100 µM | TGI (KM12 colon): > 100 µM | TGI (K-562 leukemia): > 100 µM | TGI (RPMI-8226 leukemia): > 100 µM | TGI (NCI-H23 lung): > 100 µM | TGI (HOP-92 NSCLC): > 100 µM

O=C(CCCN1CCc2[nH]c3cc(F)ccc3c2C1)c1ccc(F)cc1
TGI (MDA-N): 29.2 µM | TGI (SW-620 colon): > 100 µM | TGI (OVCAR-3 ovarian): 28.1 µM | TGI (SNB-75 CNS): 22.9 µM | TGI (SK-MEL-28 melanoma): 34.9 µM | TGI (KM12 colon): 26.9 µM | TGI (K-562 leukemia): 22.5 µM | TGI (RPMI-8226 leukemia): 27.2 µM | TGI (NCI-H23 lung): 28 µM | TGI (HOP-92 NSCLC): 8.59 µM

COC(=O)C1(Cc2ccccc2)Cc2ccccc2C1=O (stereo not given)
TGI (MDA-N): 94.6 µM | TGI (SW-620 colon): > 100 µM | TGI (OVCAR-3 ovarian): > 100 µM | TGI (SNB-75 CNS): > 100 µM | TGI (SK-MEL-28 melanoma): > 100 µM | TGI (KM12 colon): > 100 µM | TGI (K-562 leukemia): > 100 µM | TGI (RPMI-8226 leukemia): > 100 µM | TGI (NCI-H23 lung): > 100 µM | TGI (HOP-92 NSCLC): > 100 µM

CC1=CC(c2ccccc2)n2c(nc3cc4ccccc4cc32)N1 (stereo not given)
TGI (MDA-N): > 100 µM | TGI (SW-620 colon): > 100 µM | TGI (OVCAR-3 ovarian): > 100 µM | TGI (SNB-75 CNS): > 100 µM | TGI (SK-MEL-28 melanoma): > 100 µM | TGI (KM12 colon): > 100 µM | TGI (K-562 leukemia): > 100 µM | TGI (RPMI-8226 leukemia): > 100 µM | TGI (NCI-H23 lung): > 100 µM | TGI (HOP-92 NSCLC): > 100 µM

Cc1ccc(C2=Nn3c(nc4sc(-c5ccccc5)cc4c3=O)SC2)cc1
TGI (MDA-N): > 100 µM | TGI (SW-620 colon): > 100 µM | TGI (OVCAR-3 ovarian): > 100 µM | TGI (SNB-75 CNS): > 100 µM | TGI (SK-MEL-28 melanoma): > 100 µM | TGI (KM12 colon): > 100 µM | TGI (K-562 leukemia): > 100 µM | TGI (RPMI-8226 leukemia): > 100 µM | TGI (NCI-H23 lung): > 100 µM | TGI (HOP-92 NSCLC): > 100 µM

O=C(O)c1ccccc1-c1ccccc1C(=O)c1ccccc1
TGI (MDA-N): > 100 µM | TGI (SW-620 colon): > 100 µM | TGI (OVCAR-3 ovarian): > 100 µM | TGI (SNB-75 CNS): > 100 µM | TGI (SK-MEL-28 melanoma): > 100 µM | TGI (KM12 colon): > 100 µM | TGI (K-562 leukemia): > 100 µM | TGI (RPMI-8226 leukemia): > 100 µM | TGI (NCI-H23 lung): > 100 µM | TGI (HOP-92 NSCLC): > 100 µM

COC(=O)C(Cc1ccc([N+](=O)[O-])cc1)NC(=O)C(CC(=O)OC(C)(C)C)NC(=O)OC(C)(C)C (stereo not given) (Boc-Asp(OtBu)-[Phe(4-NO2)]-OMe; configuration not given here)
TGI (MDA-N): > 100 µM | TGI (SW-620 colon): > 100 µM | TGI (OVCAR-3 ovarian): > 100 µM | TGI (SNB-75 CNS): > 100 µM | TGI (SK-MEL-28 melanoma): 57.4 µM | TGI (KM12 colon): > 100 µM | TGI (K-562 leukemia): > 100 µM | TGI (RPMI-8226 leukemia): > 100 µM | TGI (NCI-H23 lung): > 100 µM | TGI (HOP-92 NSCLC): > 100 µM

COC1(OC)/C(=C(\N)C=O)NC(C)(C)N1O
TGI (MDA-N): > 100 µM | TGI (SW-620 colon): > 100 µM | TGI (OVCAR-3 ovarian): 97.5 µM | TGI (SNB-75 CNS): > 100 µM | TGI (SK-MEL-28 melanoma): > 100 µM | TGI (KM12 colon): > 100 µM | TGI (K-562 leukemia): > 100 µM | TGI (RPMI-8226 leukemia): > 100 µM | TGI (NCI-H23 lung): > 100 µM | TGI (HOP-92 NSCLC): > 100 µM

O=C(O)c1ccc(Nc2cnc3ccc(C(F)(F)F)cc3n2)cc1
TGI (MDA-N): 37.3 µM | TGI (SW-620 colon): 46.6 µM | TGI (OVCAR-3 ovarian): 98.1 µM | TGI (SNB-75 CNS): 37.2 µM | TGI (SK-MEL-28 melanoma): > 100 µM | TGI (KM12 colon): 31.4 µM | TGI (K-562 leukemia): 51.4 µM | TGI (RPMI-8226 leukemia): 48 µM | TGI (NCI-H23 lung): 33.5 µM | TGI (HOP-92 NSCLC): 38.9 µM

CCC1(O)CN(CCOC)[C@H]2C[C@@H]1C(=O)c1[nH]c3ccccc3c12 (stereo not given in full)
TGI (MDA-N): > 100 µM | TGI (SW-620 colon): > 100 µM | TGI (OVCAR-3 ovarian): > 100 µM | TGI (SNB-75 CNS): > 100 µM | TGI (SK-MEL-28 melanoma): > 100 µM | TGI (KM12 colon): > 100 µM | TGI (K-562 leukemia): > 100 µM | TGI (RPMI-8226 leukemia): > 100 µM | TGI (NCI-H23 lung): > 100 µM | TGI (HOP-92 NSCLC): > 100 µM

COc1ccc([C@@]23CCC(=O)C[C@@H]2N(C)CC3)cc1OC
TGI (MDA-N): > 100 µM | TGI (SW-620 colon): > 100 µM | TGI (OVCAR-3 ovarian): > 100 µM | TGI (SNB-75 CNS): > 100 µM | TGI (SK-MEL-28 melanoma): > 100 µM | TGI (KM12 colon): > 100 µM | TGI (K-562 leukemia): > 100 µM | TGI (RPMI-8226 leukemia): > 100 µM | TGI (NCI-H23 lung): > 100 µM | TGI (HOP-92 NSCLC): > 100 µM

CCOC(=O)Cc1nc2c(=O)[nH]cnc2n1C1OC(COC(C)=O)C(OC(C)=O)C1OC(C)=O (stereo not given)
TGI (MDA-N): > 100 µM | TGI (SW-620 colon): > 100 µM | TGI (OVCAR-3 ovarian): > 100 µM | TGI (SNB-75 CNS): > 100 µM | TGI (SK-MEL-28 melanoma): > 100 µM | TGI (KM12 colon): > 100 µM | TGI (K-562 leukemia): > 100 µM | TGI (RPMI-8226 leukemia): > 100 µM | TGI (NCI-H23 lung): > 100 µM | TGI (HOP-92 NSCLC): > 100 µM

CN(C)CCn1c(=O)c2ccc(NCCNCCO)c3c(=O)c4cc(O)ccc4n(c1=O)c23
TGI (MDA-N): 7.49 µM | TGI (SW-620 colon): 11.2 µM | TGI (OVCAR-3 ovarian): 19.3 µM | TGI (SNB-75 CNS): 6.2 µM | TGI (SK-MEL-28 melanoma): 17 µM | TGI (KM12 colon): 26.6 µM | TGI (K-562 leukemia): > 30.5 µM | TGI (RPMI-8226 leukemia): 8.43 µM | TGI (NCI-H23 lung): 3.64 µM | TGI (HOP-92 NSCLC): 4.56 µM

O=C(O)CCCc1nc2c(n1-c1ccccc1)C(=O)c1ccccc1C2=O
TGI (MDA-N): > 100 µM | TGI (SW-620 colon): > 100 µM | TGI (OVCAR-3 ovarian): 82.7 µM | TGI (SNB-75 CNS): > 100 µM | TGI (SK-MEL-28 melanoma): > 100 µM | TGI (KM12 colon): > 100 µM | TGI (K-562 leukemia): > 100 µM | TGI (RPMI-8226 leukemia): > 100 µM | TGI (NCI-H23 lung): > 100 µM | TGI (HOP-92 NSCLC): > 100 µM
